{"source": "paper PMC11591947", "about": "“Peroxidase-like Nanoparticles of Noble Metals Stimulate Increasing Sensitivity of Flavocytochrome b2-Based L-Lactate Biosensors” (Biosensors, 2024)", "target": "T1, Flavocytochrome b2 (Fcb2, EC 1.1.2.3) (Ogataea polymorpha, UniProt A0A9P8PNE1)", "T1 construct": "gene OGATHE_001663", "T1 sequence (A0A9P8PNE1 55-553)": "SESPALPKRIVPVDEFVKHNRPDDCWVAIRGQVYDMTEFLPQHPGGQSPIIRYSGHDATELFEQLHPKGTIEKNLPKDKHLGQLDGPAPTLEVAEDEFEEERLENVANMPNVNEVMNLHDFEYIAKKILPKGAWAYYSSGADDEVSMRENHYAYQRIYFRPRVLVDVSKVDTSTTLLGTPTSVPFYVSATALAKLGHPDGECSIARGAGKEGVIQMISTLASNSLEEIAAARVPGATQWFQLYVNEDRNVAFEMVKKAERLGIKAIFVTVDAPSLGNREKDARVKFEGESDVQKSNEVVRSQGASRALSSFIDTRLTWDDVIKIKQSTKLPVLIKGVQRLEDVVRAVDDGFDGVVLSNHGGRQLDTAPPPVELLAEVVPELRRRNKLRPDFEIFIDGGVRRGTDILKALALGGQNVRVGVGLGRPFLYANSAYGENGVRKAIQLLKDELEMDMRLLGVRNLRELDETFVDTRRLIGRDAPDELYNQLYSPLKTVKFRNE", "assay": "chronoamperometry on Fcb2/graphite electrode biosensor", "format": "biochemical", "conditions": "immobilised enzyme (0.3 units, Nafion film, no nanoparticles); 1 mM PMS; +200 mV vs Ag/AgCl; apparent value of bioelectrode", "data": [{"compound": "C[C@H](O)C(=O)O", "note": "[L-lactate]", "values": [{"measurement": "KM^app", "value": "Calibration curves illustrating the current dependence on the L-lactate concentration for the ABS"}]}]}
